For one assay, the system named is β-glucosidase. Briefly: Stabilization of β-glucosidase by moranoline and N-methylmoranoline. Format: biochemical. As to conditions: 6 mg/ml of the hydrochloride, kept at 60° C. Here is the method: Test samples were (1) 1 ml of 0.2M buffer solution of β-glucosidase (300 μg/ml) alone, (2) 1 ml of 0.2M buffer solution of β-glucosidase (300 μg/ml) supplemented with 6 mg/ml of moranoline hydrochloride and, (3) 1 ml of 0.2M buffer solution of β-glucosidase (300 μg/ml) supplemented with 6 mg/ml of N-methylmoranoline hydrochloride. These test samples were kept at 60° C. and the residual enzyme activity was measured with passage of time.
For determination of the enzyme activity, there was used a method measuring absorbancy at 400 nm using […] as a substrate.
That is, 200 μl of 0.014M p-nitrophenyl-β-D-glucoside, 200 μl of the enzyme solution taken from each sample for sampling with passage of time which was appropriately diluted, and 600 μl of 0.2M acetate buffer solution (pH 4.5) were reacted at 30° C. for 15 minutes. After 2 ml of 0.1M disodium carbonate was added thereto to terminate the reaction, a color was formed and the color was measured at 400 nm. When absorbancy at the initiation of the reaction was made 100, relative absorbancy in each time was defined to be residual activity.

In a further assay the target is T1, glucoamylase (Rhizopus arrhizus, UniProt P07683).
T1 construct: maltose substrate
The assay can be described thus: Stabilization of GA (aqueous solution) by moranoline, N-methylmoranoline. The assay is classed as biochemical, Rhizopus niveus. Here is the method:
As the enzyme, Rhizopus niveus-derived reagent glucoamylase manufactured by Seikagaku Kogyo Co., Ltd. was used.
After 5 mg of the enzyme was dissolved in 1 ml of 0.1M acetate buffer solution (pH 5.0), moranoline and N-methylmoranoline were dissolved in the solution in a concentration of 6000 μg/ml. The solution was charged in a test tube with a screw stopper followed by incubation at 50° C. Each enzyme solution was diluted with 0.1M acetate buffer solution (pH 5.0) to 100-fold and 100 μl of the dilution was taken. After 400 μl of 5% maltose solution (0.05M acetate buffer solution, pH 4.6) was added thereto, the mixture was reacted at 40° C. for 20 minutes. […] Thereafter, the system was ice cooled and absorbency was measured at 500 nm to determine the glucose amount. […] When the initial enzyme activity (amount of glucose produced) was made […], relative enzyme activity was determined. […]
After 5 mg of the enzyme was dissolved in 1 ml of 0.1M acetate buffer solution (pH 5.0), moranoline and N-methylmoranoline were dissolved in the solution in a concentration of 6000 μg/ml. […] Thereafter, the system was ice cooled and absorbancy was measured at 500 nm to determine the glucose amount. […] When the initial enzyme activity (amount of glucose produced) was made 100, relative enzyme activity was determined. […]

The target of the next assay is T2, immobilized CGTase (Geobacillus stearothermophilus, UniProt P31797).
T2 construct: purchased Hayashibara Biochemical Research Institute
T2 sequence (P31797 32-711): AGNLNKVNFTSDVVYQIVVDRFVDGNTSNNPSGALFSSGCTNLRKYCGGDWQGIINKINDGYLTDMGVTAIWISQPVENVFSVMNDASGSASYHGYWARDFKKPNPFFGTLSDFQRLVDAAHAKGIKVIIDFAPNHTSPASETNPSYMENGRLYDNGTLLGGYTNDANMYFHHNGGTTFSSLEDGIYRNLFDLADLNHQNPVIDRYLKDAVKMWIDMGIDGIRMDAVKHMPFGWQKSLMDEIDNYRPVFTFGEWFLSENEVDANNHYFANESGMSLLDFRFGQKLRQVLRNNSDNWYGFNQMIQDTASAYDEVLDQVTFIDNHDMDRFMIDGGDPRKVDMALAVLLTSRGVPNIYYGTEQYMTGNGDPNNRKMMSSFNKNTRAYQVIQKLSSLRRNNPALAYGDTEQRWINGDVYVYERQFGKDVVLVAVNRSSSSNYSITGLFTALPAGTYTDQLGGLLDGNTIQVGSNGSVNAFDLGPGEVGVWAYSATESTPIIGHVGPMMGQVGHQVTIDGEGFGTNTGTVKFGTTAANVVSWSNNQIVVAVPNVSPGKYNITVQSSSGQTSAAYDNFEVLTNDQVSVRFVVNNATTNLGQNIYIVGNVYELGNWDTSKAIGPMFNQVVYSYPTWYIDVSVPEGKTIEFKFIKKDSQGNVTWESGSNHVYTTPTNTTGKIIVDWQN
The assay can be described thus: Stabilization of immobilized CGTase, sugar transfer continuous reaction of N-methylmoranoline. Format: biochemical, Bacillus stearothermophilus. The conditions noted are these: 3360 h; after 140 days, 55° C., 1.5 w/v% N-methylmoranoline and 9 w/v% soluble starch, 160 ml/day; read-out: activity retained. Here is the method:
The immobilized CGTase, 20 ml, obtained in Reference Example 1 was packed in a column having a diameter of 1 cm equipped with a jacket and a solution with the pH being not adjusted containing 1.5 w/v% of N-methylmoranoline and 9 w/v% of soluble starch was continuously passed through the column at 55° C. in a passing velocity of 160 ml/day to react them, whereby the reaction progress rate of the passing liquid was determined with passage of time. The reaction progress rate and activity retention rate were determined in a manner similar to Reference 4. The results reveal that even after 140 days, almost 100% of the activity was retained.
The immobilized CGTase, 20 ml, obtained in Reference Example A was packed in a column having a diameter of 1 cm equipped with a jacket and a solution with the pH being not adjusted containing 1.5 w/v% of N-methylmoranoline and 9 w/v% of soluble starch was continuously passed through the column at 55° C. in a passing velocity of 160 ml/day to react them, whereby the reaction progress rate of the passing liquid was determined with passage of time. The reaction progress rate and activity retention rate were determined in a manner similar to Example 27.

T1 sequence (P07683 26-604): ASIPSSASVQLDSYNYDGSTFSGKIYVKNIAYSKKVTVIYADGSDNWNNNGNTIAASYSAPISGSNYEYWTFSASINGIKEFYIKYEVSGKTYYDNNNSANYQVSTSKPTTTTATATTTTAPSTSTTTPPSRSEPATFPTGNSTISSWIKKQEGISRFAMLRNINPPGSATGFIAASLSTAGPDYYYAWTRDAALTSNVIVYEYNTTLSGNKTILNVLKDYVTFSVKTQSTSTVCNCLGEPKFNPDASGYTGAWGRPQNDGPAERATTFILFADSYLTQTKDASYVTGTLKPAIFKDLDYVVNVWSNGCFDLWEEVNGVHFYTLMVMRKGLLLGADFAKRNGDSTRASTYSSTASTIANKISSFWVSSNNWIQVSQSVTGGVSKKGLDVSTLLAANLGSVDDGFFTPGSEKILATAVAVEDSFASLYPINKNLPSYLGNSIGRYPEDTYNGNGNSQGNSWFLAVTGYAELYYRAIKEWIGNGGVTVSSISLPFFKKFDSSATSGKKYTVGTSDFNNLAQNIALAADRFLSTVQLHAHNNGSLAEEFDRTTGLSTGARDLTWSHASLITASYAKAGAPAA

Consider `CN1C[C@H](O)[C@@H](O)[C@H](O)[C@H]1CO` [N-methylmoranoline], for which, in the assay with β-glucosidase, the “stabilizing effect (residual activity, FIG. 4)” value was “stabilizing effect”. Besides, the “inhibition of the enzyme activity of glucoamylase” value against glucoamylase was “inhibit the enzyme activity of glucoamylase”. Moreover, on immobilized CGTase, the activity at 15000 µg/mL was ~100%.

The values are drawn from patent publication US5256788A, “Moranoline derivatives and their production and the use of moranoline and its derivatives as a stabilizing agent for enzymes” (Nippon Shinyaku Co. Ltd., priority 1989, dated 1993).
